By IC50 is commonly meant the point on the concentration scale where inhibition reaches its midpoint.

The experiment is described as follows: Antagonist activity at CCR2 in human THP1 cells assessed as inhibition of MCP1-induced chemotaxis after 3 hrs.
For `O=C(CNC(=O)c1cccc(C(F)(F)F)c1)NC1CN([C@H]2CC[C@H](c3ccncc3O)CC2)C1`, the IC50 amounted to 57 nM.

Consider `O=C(CNC(=O)c1cccc(C(F)(F)F)c1)NC1CN([C@H]2CC[C@](O)(c3ccc4c(c3)OCC4)CC2)C1`, for which the half-maximal inhibitory concentration (IC50) is 52 nM.

`COc1ccc([C@]2(O)CC[C@@H](N3CC(NC(=O)CNC(=O)c4cccc(C(F)(F)F)c4)C3)CC2)cc1`: the half-maximal inhibitory concentration (IC50) turned out to be 67 nM.

As for `COc1cc([C@H]2CC[C@H](N3CC(NC(=O)CNC(=O)c4cccc(C(F)(F)F)c4)C3)CC2)ccn1`, the IC50 is 170 nM.

With `COc1ccc([C@H]2CC[C@H](N3CC(NC(=O)CNC(=O)c4cccc(C(F)(F)F)c4)C3)CC2)cn1`, the half-inhibitory concentration (IC50) amounted to 11 nM.

On to `COc1cnccc1[C@H]1CC[C@H](N2CC(NC(=O)CNC(=O)c3cccc(C(F)(F)F)c3)C2)CC1`, for which the half-maximal inhibitory concentration (IC50) stood at 28 nM.

Take `O=C(CNC(=O)c1cccc(C(F)(F)F)c1)NC1CN([C@H]2CC[C@](O)(c3ccc4c(c3)OCO4)CC2)C1`: the half-inhibitory concentration (IC50) was 27 nM.

Regarding `O=C(CNC(=O)c1cccc(C(F)(F)F)c1)NC1CN([C@H]2CC[C@H](c3ccc4nc[nH]c4c3)CC2)C1`, the half-maximal inhibitory concentration (IC50) is 21 nM.

Turning to `O=C(CNC(=O)c1cccc(C(F)(F)F)c1)NC1CN([C@H]2CC[C@H](c3ccc(C(=O)O)cc3)CC2)C1`, the IC50 was found to be 1300 nM.

Turning to `O=C(CNC(=O)c1cccc(C(F)(F)F)c1)NC1CN([C@H]2CC[C@H](c3ccc(N4CCCC4)cc3)CC2)C1`, the half-inhibitory concentration (IC50) was determined as 240 nM.

Turning to `O=C(CNC(=O)c1cccc(C(F)(F)F)c1)NC1CN([C@H]2CC[C@@H](c3ccc4c(c3)OCO4)CC2)C1`, the IC50 turned out to be 15 nM.

On to `O=C(CNC(=O)c1cccc(C(F)(F)F)c1)NC1CN([C@H]2CC[C@H](c3ccc(O)cc3)CC2)C1`, for which the half-inhibitory concentration (IC50) worked out at 42 nM.

With `N[C@]1(c2ccccc2)CC[C@H](N2CC(NC(=O)CNC(=O)c3cccc(C(F)(F)F)c3)C2)CC1`, the half-maximal inhibitory concentration (IC50) was determined as 160 nM.

For the compound `O=C(CNC(=O)c1cccc(C(F)(F)F)c1)NC1CN([C@H]2CC[C@H](c3cccnc3)CC2)C1`, the half-inhibitory concentration (IC50) came out at 52 nM.

On to `COc1ccc([C@H]2CC[C@H](N3CC(NC(=O)CNC(=O)c4cccc(C(F)(F)F)c4)C3)CC2)cc1`, for which the IC50 worked out at 25 nM.

In the case of `O=C(CNC(=O)c1cccc(C(F)(F)F)c1)NC1CN([C@H]2CC[C@H](c3ccc(O)cn3)CC2)C1`, the IC50 amounted to 14 nM.

(Values after BindingDB's records for doi:10.1016/j.bmcl.2011.06.080 (Johnson & Johnson Pharmaceutical Research and Development, 2011).)
